Read-outs that look alike come from different tables or passages of the source.
How the values were obtained:
human MER (528-end) = human MER (528-end) (Homo sapiens (Human), UniProt Q12866); assay: HTRF Kinase Activity Biochemical Assay (KinEASE-TK); conditions: 10 uM ATP
In short: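 Activity read-out is the HTRF ratio (665 nm over 620 nm emission, ×10,000; excitation 340 nm) after 1 h detection with 0.375 nM Eu3+-cryptate anti-TK antibody plus 0.062 uM SA-XL665. Preceding kinase step: human MER (528-end), biotinylated TK substrate, 1 h, room temperature.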

[1] = molecular target: BCR fusion to kinase domain of MerTK (Ba/F3-MerTK) (Homo sapiens, UniProt Q12866); assay: In Cell TAM Kinase Assay Using BaF3 Cellular System; assay type: cell-based, murine; conditions: Ba/F3 BCR-kinase fusion proliferation, 72 hours, Cell Titer Glo, kinase not given
Description: Three Ba/F3 cell lines (a murine IL-3 dependent pro-B cell line) expressing BCR fusions to the kinase domains of either MerTK (Ba/F3-MerTK), Axl (Ba/F3-Axl), or Tyro3 (Ba/F3-Tyro3) were purchased from Advanced Cellular Dynamics. The IL-3 independence of all 3 cell lines was confirmed. After thawing, the 3 Ba/F3 cell lines were split and maintained in cell culture media, which consisted of RPMI-1640-HEPES (Thermo-Cat #22400-089) with 1× Glutamax (Thermo-Cat #35050-061) and 10% FBS (Sigma-Cat #F4135 (500 ml), at a cell density range of 0.05×10^6−1×10^6 cells/mL 4 days before used in the routine screen. Compound plates were prepared using Nunc™ white 384-well optical bottom plates (ThermoFisher, USA) with compound in 25 nL dimethyl sulfoxide in each well. For routine assays, each of the 3 Ba/F3 cell lines was seeded at 1,000 cells per well with 25 µL of cell culture media directly into 384-well compound plates and incubated for 72 hours. Cell proliferation was then measured by adding 25 μL of Cell Titer Glo 2.0 (Promega, USA). After incubating with Cell Titer Glo at room temperature for 30 mins, the luminescence intensity, which quantifies the cell viability, was measured using an Envision™ plate reader (PerkinElmer, USA). […] In the presence of IL-3, the proliferation of the Ba/F3-Tyro3 cells is no longer dependent on the Tyro3 kinase activity.

Chain of BCR fusion to kinase domain of MerTK (Ba/F3-MerTK) (Q12866 21-999 limits assumed, stated change not applied): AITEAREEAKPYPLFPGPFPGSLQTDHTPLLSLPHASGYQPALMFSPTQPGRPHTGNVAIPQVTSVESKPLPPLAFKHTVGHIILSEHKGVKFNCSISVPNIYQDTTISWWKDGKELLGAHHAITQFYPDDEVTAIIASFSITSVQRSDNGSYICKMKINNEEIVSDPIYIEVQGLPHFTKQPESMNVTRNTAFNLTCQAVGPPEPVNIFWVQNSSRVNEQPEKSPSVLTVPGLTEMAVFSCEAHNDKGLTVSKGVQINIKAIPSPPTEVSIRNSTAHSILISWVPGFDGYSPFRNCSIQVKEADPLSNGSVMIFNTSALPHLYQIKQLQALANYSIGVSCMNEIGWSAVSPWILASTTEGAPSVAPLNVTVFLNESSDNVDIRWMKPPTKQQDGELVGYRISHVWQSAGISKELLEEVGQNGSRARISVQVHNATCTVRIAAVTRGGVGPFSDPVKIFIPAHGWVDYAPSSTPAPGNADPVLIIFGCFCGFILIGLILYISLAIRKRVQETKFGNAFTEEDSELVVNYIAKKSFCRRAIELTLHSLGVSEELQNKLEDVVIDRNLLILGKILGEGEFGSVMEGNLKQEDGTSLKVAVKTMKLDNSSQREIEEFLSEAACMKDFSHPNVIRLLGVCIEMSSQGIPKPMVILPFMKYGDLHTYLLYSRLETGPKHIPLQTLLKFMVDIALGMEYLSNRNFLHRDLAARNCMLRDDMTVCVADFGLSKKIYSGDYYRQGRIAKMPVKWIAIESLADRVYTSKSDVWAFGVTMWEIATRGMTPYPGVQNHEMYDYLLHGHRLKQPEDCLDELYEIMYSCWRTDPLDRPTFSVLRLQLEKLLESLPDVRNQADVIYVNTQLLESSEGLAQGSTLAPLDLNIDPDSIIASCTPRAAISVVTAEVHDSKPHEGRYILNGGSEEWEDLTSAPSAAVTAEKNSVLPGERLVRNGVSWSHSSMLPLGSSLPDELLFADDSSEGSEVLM
Chain of human MER (528-end) (Q12866 528-999 limits assumed): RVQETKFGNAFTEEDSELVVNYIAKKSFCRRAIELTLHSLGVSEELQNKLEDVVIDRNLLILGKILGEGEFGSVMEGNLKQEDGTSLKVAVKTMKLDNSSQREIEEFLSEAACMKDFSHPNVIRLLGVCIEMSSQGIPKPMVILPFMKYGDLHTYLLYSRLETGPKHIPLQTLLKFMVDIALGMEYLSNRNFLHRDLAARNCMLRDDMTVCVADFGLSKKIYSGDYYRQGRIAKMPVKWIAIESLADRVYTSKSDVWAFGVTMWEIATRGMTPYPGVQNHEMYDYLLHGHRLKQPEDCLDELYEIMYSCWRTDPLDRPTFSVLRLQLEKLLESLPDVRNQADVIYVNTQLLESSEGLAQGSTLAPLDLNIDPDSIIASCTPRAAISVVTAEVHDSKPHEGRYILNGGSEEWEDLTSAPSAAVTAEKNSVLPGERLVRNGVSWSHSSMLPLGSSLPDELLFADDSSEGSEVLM

| SMILES | IC50 (human MER (528-end)) | IC50 ([1]; read-out: IC50) | IC50 [1] |
| --- | --- | --- | --- |
| Nc1ncc(-c2ccc(C(=O)NC3CCOCC3)cc2)cc1C(=O)N[C@@H]1CCN(C(=O)c2ccc(-c3ccccc3Cl)cc2)C1 [Example 593, (R)-2-amino-N-(1-(2′-chloro-[1,1′-biphenyl]-4-carbonyl)pyrrolidin-3-yl)-5-(4-((tetrahydro-2H-pyran-4-yl)carbamoyl)phenyl)nicotinamide] | 10 to 100 nM | > 1000 nM |  |
| Cn1cc(-c2cnc(N)c(C(=O)N[C@@H]3CCN(C(=O)c4ccc(-c5ccc(Oc6ccc(CN)cc6)cc5)cc4)C3)c2)cn1 [Example 634, (R)-2-amino-N-(1-(4′-(4-(aminomethyl)phenoxy)-[1,1′-biphenyl]-4-carbonyl)pyrrolidin-3-yl)-5-(1-methyl-1H-pyrazol-4-yl)nicotinamide] | < 10 nM | 500 to 1000 nM |  |
| Cn1cc(-c2cnc(N)c(C(=O)N[C@@H]3CCN(C(=O)c4ccc(-c5ccc(Oc6ccc(CO)cc6)cc5)cc4)C3)c2)cn1 [Example 635, (R)-2-amino-N-(1-(4′-(4-(hydroxymethyl)phenoxy)-[1,1′-biphenyl]-4-carbonyl)pyrrolidin-3-yl)-5-(1-methyl-1H-pyrazol-4-yl)nicotinamide] | 10 to 100 nM | 100 to 500 nM |  |
| CN(C)Cc1ccc(Oc2ccc(-c3ccc(C(=O)N4CC[C@@H](NC(=O)c5cc(-c6cnn(C)c6)cnc5N)C4)cc3)cc2)cc1 [Example 636, (R)-2-amino-N-(1-(4′-(4-((dimethylamino)methyl)phenoxy)-[1,1′-biphenyl]-4-carbonyl)pyrrolidin-3-yl)-5-(1-methyl-1H-pyrazol-4-yl)nicotinamide] | 10 to 100 nM | 100 to 500 nM |  |
| CN1CCC(Cc2ccc(-c3ccc(C(=O)N4CC[C@@H](NC(=O)c5cc(-c6cnn(C)c6)cnc5N)C4)cc3)cc2)CC1 [Example 643, (R)-2-amino-5-(1-methyl-1H-pyrazol-4-yl)-N-(1-(4′-((1-methylpiperidin-4-yl)methyl)-[1,1′-biphenyl]-4-carbonyl)pyrrolidin-3-yl)nicotinamide] | 100 to 1000 nM | > 1000 nM |  |
| CN1CCC(N(C)c2ccc3cc(C(=O)N4CC[C@@H](NC(=O)c5cc(-c6cnn(C)c6)cnc5N)C4)ccc3c2)CC1 [Example 644, (R)-2-amino-N-(1-(6-(methyl(1-methylpiperidin-4-yl)amino)-2-naphthoyl)pyrrolidin-3-yl)-5-(1-methyl-1H-pyrazol-4-yl)nicotinamide] | 10 to 100 nM | 100 to 500 nM |  |
| Cc1cccc(-c2ccc(C(=O)N3CC[C@@H](NC(=O)c4cc(-c5cnn(C)c5)cnc4N)C3)cc2)c1 [Example 656, (R)-2-amino-5-(1-methyl-1H-pyrazol-4-yl)-N-(1-(3′-methyl-[1,1′-biphenyl]-4-carbonyl)pyrrolidin-3-yl)nicotinamide] | 10 to 100 nM | < 100 nM |  |
| CCc1cccc(-c2ccc(C(=O)N3CC[C@@H](NC(=O)c4cc(-c5cnn(C)c5)cnc4N)C3)cc2)c1 [Example 657, (R)-2-amino-N-(1-(3′-ethyl-[1,1′-biphenyl]-4-carbonyl)pyrrolidin-3-yl)-5-(1-methyl-1H-pyrazol-4-yl)nicotinamide] | 10 to 100 nM | 100 to 500 nM |  |
| CC(C)c1cccc(-c2ccc(C(=O)N3CC[C@@H](NC(=O)c4cc(-c5cnn(C)c5)cnc4N)C3)cc2)c1 [Example 658, (R)-2-amino-N-(1-(3′-isopropyl-[1,1′-biphenyl]-4-carbonyl)pyrrolidin-3-yl)-5-(1-methyl-1H-pyrazol-4-yl)nicotinamide] | 100 to 1000 nM | 500 to 1000 nM |  |
| COc1ccc(-c2ccc(C(=O)N3CC[C@@H](NC(=O)c4cc(-c5cnn(C)c5)cnc4N)C3)cc2)cc1OC [Example 659, (R)-2-amino-N-(1-(3′,4′-dimethoxy-[1,1′-biphenyl]-4-carbonyl)pyrrolidin-3-yl)-5-(1-methyl-1H-pyrazol-4-yl)nicotinamide] | 100 to 1000 nM | > 1000 nM |  |
| Cn1cc(-c2cnc(N)c(C(=O)N[C@@H]3CCN(C(=O)c4ccc(-c5ccc(Cl)c(F)c5)cc4)C3)c2)cn1 [Example 661, (R)-2-amino-N-(1-(4′-chloro-3′-fluoro-[1,1′-biphenyl]-4-carbonyl)pyrrolidin-3-yl)-5-(1-methyl-1H-pyrazol-4-yl)nicotinamide] | 10 to 100 nM | 500 to 1000 nM |  |
| Cn1cc(-c2cnc(N)c(C(=O)N[C@@H]3CCN(C(=O)c4ccc(-c5cccc(F)c5Cl)cc4)C3)c2)cn1 [Example 673, (R)-2-amino-N-(1-(2′-chloro-3′-fluoro-[1,1′-biphenyl]-4-carbonyl)pyrrolidin-3-yl)-5-(1-methyl-1H-pyrazol-4-yl)nicotinamide] | 10 to 100 nM | 500 to 1000 nM |  |
| Cn1cc(-c2cnc(N)c(C(=O)N[C@@H]3CCN(C(=O)c4ccc(-c5ccc(C(=O)N6CCC(=O)CC6)cc5)cc4)C3)c2)cn1 [Example 679, (R)-2-amino-5-(1-methyl-1H-pyrazol-4-yl)-N-(1-(4′-(4-oxopiperidine-1-carbonyl)-[1,1′-biphenyl]-4-carbonyl)pyrrolidin-3-yl)nicotinamide] | > 1000 nM |  | > 1000 nM |
| Cn1cc(-c2cnc(N)c(C(=O)N[C@@H]3CCN(C(=O)c4cc5ccccc5n4C)C3)c2)cn1 [Example 695, (R)-2-amino-N-(1-(1-methyl-1H-indole-2-carbonyl)pyrrolidin-3-yl)-5-(1-methyl-1H-pyrazol-4-yl)nicotinamide] | > 1000 nM | > 1000 nM |  |
| Cn1cc(-c2cnc(N)c(C(=O)N[C@@H]3CCN(C(=O)c4cc5cc(F)ccc5[nH]4)C3)c2)cn1 [Example 696, (R)-2-amino-N-(1-(5-fluoro-1H-indole-2-carbonyl)pyrrolidin-3-yl)-5-(1-methyl-1H-pyrazol-4-yl)nicotinamide] | > 1000 nM | > 1000 nM |  |
| Cn1cc(-c2cnc(N)c(C(=O)N[C@@H]3CCN(C(=O)c4cc5ccccc5[nH]4)C3)c2)cn1 [Example 697, (R)—N-(1-(1H-indole-2-carbonyl)pyrrolidin-3-yl)-2-amino-5-(1-methyl-1H-pyrazol-4-yl)nicotinamide] | > 1000 nM | > 1000 nM |  |
| Cc1[nH]c2cc(C(=O)N3CC[C@@H](NC(=O)c4cc(-c5cnn(C)c5)cnc4N)C3)ccc2c1C [Example 698, (R)-2-amino-N-(1-(2,3-dimethyl-1H-indole-6-carbonyl)pyrrolidin-3-yl)-5-(1-methyl-1H-pyrazol-4-yl)nicotinamide] | 100 to 1000 nM | > 1000 nM |  |
| Cn1cc(-c2cnc(N)c(C(=O)N[C@@H]3CCN(C(=O)c4ccc5cccnc5n4)C3)c2)cn1 [Example 699, (R)—N-(1-(1,8-naphthyridine-2-carbonyl)pyrrolidin-3-yl)-2-amino-5-(1-methyl-1H-pyrazol-4-yl)nicotinamide] | > 1000 nM | > 1000 nM |  |
| Cn1cc(-c2cnc(N)c(C(=O)N[C@@H]3CCN(C(=O)c4ccc5cnccc5n4)C3)c2)cn1 [Example 700, (R)—N-(1-(1,6-naphthyridine-2-carbonyl)pyrrolidin-3-yl)-2-amino-5-(1-methyl-1H-pyrazol-4-yl)nicotinamide] | > 1000 nM | > 1000 nM |  |
| CCn1c(C(=O)N2CC[C@@H](NC(=O)c3cc(-c4cnn(C)c4)cnc3N)C2)cc2ccccc21 [Example 701, (R)-2-amino-N-(1-(1-ethyl-1H-indole-2-carbonyl)pyrrolidin-3-yl)-5-(1-methyl-1H-pyrazol-4-yl)nicotinamide] | > 1000 nM | > 1000 nM |  |
| Cn1cc(-c2cnc(N)c(C(=O)N[C@@H]3CCN(C(=O)c4cc5ccccc5n4Cc4ccccc4)C3)c2)cn1 [Example 702, (R)-2-amino-N-(1-(1-benzyl-1H-indole-2-carbonyl)pyrrolidin-3-yl)-5-(1-methyl-1H-pyrazol-4-yl)nicotinamide] | > 1000 nM | > 1000 nM |  |
| Cn1cc(-c2cnc(N)c(C(=O)N[C@@H]3CCN(C(=O)c4cc5c(C(F)(F)F)ccc(Cl)c5n4C)C3)c2)cn1 [Example 703, (R)-2-amino-N-(1-(7-chloro-1-methyl-4-(trifluoromethyl)-1H-indole-2-carbonyl)pyrrolidin-3-yl)-5-(1-methyl-1H-pyrazol-4-yl)nicotinamide] | > 1000 nM | > 1000 nM |  |
| Cn1cc(-c2cnc(N)c(C(=O)N[C@@H]3CCN(C(=O)c4cc5c(C(F)(F)F)ccc(Cl)c5[nH]4)C3)c2)cn1 [Example 704, (R)-2-amino-N-(1-(7-chloro-4-(trifluoromethyl)-1H-indole-2-carbonyl)pyrrolidin-3-yl)-5-(1-methyl-1H-pyrazol-4-yl)nicotinamide] | > 1000 nM | > 1000 nM |  |
| Cn1cc(-c2cnc(N)c(C(=O)N[C@@H]3CCN(C(=O)c4ccc5cc(O)ccc5c4)C3)c2)cn1 [Example 706, (R)-2-amino-N-(1-(6-hydroxy-2-naphthoyl)pyrrolidin-3-yl)-5-(1-methyl-1H-pyrazol-4-yl)nicotinamide] | 100 to 1000 nM | > 1000 nM |  |
